According to US20120171229A1, “SYNTHETIC NANOCARRIERS WITH REACTIVE GROUPS THAT RELEASE BIOLOGICALLY ACTIVE AGENTS” (Selecta Biosciences, Inc., priority 2010, published 2012):

Assay: Release by thiol addition and hydride reduction (TLC)
Type: physicochemical
Settings: water with a drop of acetic acid, 2 hours
Procedure: A portion of the amide was dissolved in water with a drop of acetic acid. This yellow solution was divided into two portions. One portion was treated with sodium dithionite, a reducing agent, and the other was treated with 2-mercaptoethanol. After 2 hours, the samples were diluted with water and extracted with ethyl acetate.

## CN1CCN(C(=O)CC(C)(C)C2=CC(=O)c3ccccc3C2=O)CC1 [Example 8]
2-mercaptoethanol
  Release by thiol addition, TLC result: the amide had been consumed with a colorless, non-polar product (lactone) being formed
Sodium dithionite
  Release by hydride reduction, TLC result: the amide had been consumed with a colorless, non-polar product (lactone) being formed
